Measured values taken from patent publication US4877881A, “Process of preparing pyrazoles, isoxazoles and analogs thereof having activity as 5-lipoxygenase inhibitors” (Warner-Lambert Company, priority 1988, dated 1989).
pIC50: −log10 of the molar value.

Key:
5-lipoxygenase = biological target: T1, 5-lipoxygenase (Homo sapiens, UniProt P09917); experiment: 5-Lipoxygenase Assay Using Isolated Human Leukocytes (5LOA2), 5-HETE formation; assay type: cell-based; settings: inhibition of 5-HETE formation, arachidonic acid 20 μM, A23187 10 μM, read-out: 5-LO(IC50 in μM)
T1 construct: The formation of 5-HETE in human leukocytes is considered a measure of 5-lipoxygenase activity; endogenous in cells; host or cells: leukocytes isolated from fresh human blood
T1 sequence (P09917 1-674): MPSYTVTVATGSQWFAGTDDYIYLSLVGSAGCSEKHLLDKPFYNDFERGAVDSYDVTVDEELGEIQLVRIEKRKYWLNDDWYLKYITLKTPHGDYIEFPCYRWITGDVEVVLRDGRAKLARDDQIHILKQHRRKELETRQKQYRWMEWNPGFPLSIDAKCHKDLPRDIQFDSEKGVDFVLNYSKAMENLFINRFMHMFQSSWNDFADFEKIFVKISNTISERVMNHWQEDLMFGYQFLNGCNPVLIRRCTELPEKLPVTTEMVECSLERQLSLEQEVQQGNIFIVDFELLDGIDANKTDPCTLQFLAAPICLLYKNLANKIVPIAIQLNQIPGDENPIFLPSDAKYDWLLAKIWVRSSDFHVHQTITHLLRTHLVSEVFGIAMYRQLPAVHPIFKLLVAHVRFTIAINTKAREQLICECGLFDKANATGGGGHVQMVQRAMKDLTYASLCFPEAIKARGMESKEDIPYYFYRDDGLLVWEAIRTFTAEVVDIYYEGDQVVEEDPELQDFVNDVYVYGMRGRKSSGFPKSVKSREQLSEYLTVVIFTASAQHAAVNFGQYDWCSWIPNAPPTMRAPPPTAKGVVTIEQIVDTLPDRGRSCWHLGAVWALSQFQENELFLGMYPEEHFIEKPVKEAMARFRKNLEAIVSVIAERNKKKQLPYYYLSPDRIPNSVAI
Description: 5-Lipoxygenase Assay Using Isolated Human Leukocytes (5LOA2)
The formation of 5-HETE in human leukocytes is considered a measure of 5-lipoxygenase activity. The protocol is described in the following.
Fresh heparinized or EDTA treated human blood is mixed with 6% dextran-3% dextrose in isotonic saline in the ratio 0.25 ml dextran solution per 1.0 ml blood. After mixing the blood is allowed to sit at room temperature for about 90 minutes while the RBC's settle. During this period, the plasma is removed with a plastic pipette to nalgens tubes.
The pellet, consisting of leukocytes and erythrocytes, is treated with 10 ml 0.87% ammonium chloride at room temperature for four minutes, lysing the red cells. At the end of four minutes the cells are diluted with a 2x volume of phosphate buffered saline, pH 7.4, and centrifuged for ten minutes. The cells are washed three times with the phosphate buffered saline. Any of the pelleted cell matter which is not easily resuspended is discarded during the washings--the material contains platelets (12-lipoxygenase activity).
After washing, the cells are resuspended in phosphate buffered saline containing 1.0 mM 'calcium and 0.5 mM magnesium. After counting, the cells are diluted to 1.5-2.0×10^7 leukocytes per milliliter.
To each polypropylene reaction tube is added 0.48 ml leukocytes in Ca-Mg phosphate buffered saline, pH 7.4; 1-5 μl test compound dissolved in DMSO and buffer; or DMSO for control tubes.
The tubes preincubate at 37° C. for five minutes.
The reaction is started by adding 20 μl of the following, 0.5 μl, 20 mM arachidonic acid--final concentration=20 μM; 1 μl, 5 mM calcium ionophore A23187--final concentration=10 μM; and 18.5 μl buffer.
The reaction proceeds for five minutes, then is stopped by adding 0.5 ml, 0.5 mM ice-cold Tris buffer, pH 8.0. The tubes are chilled on ice for ten minutes and then extracted three times with a total of 3.5 ml ethyl acetate (3.0 ml removed).
The tubes can be stored at this point. For extended storage, the tubes should be filled with nitrogen.
The ethyl acetate is evaporated with a Sorvall Speed-Vac. The residue is dissolved in ethanol. The tubes can also be stored at this point at -20° C. under nitrogen.
A portion of the ethanol solution is injected into the HPLC system for 5-HETE quantitation.
Injections are made automatically with a Waters WISP 710B. The pump is a Spectra Physics SP8700. […] An RP C-18 column is used. The solvent system is isocratic; the solvent is 70% methanol and 30% 0.01M sodium acetate, pH 5.7, pumped at 1.0 ml/min. […] Using a 15 cm Alltech Nucleosil C-18 5 μM column provides for a sample turnaround time of about 16 minutes.

cyclooxygenase = biological target: T2, cyclooxygenase (Rattus norvegicus, UniProt Q63921); experiment: ARBC Whole Cell Cyclooxygenase Assay in RBL-1 cells (PGF2α RIA); assay type: cell-based; settings: RBL-1 intact cell cyclooxygenase; A23187 5 μM
T2 construct: RBL-1 intact cell cyclooxygenase IC50 values; endogenous in cells; host or cells: RBL-1 rat basophilic leukemia cells (American Type Culture Collection)
T2 sequence (Q63921 27-602): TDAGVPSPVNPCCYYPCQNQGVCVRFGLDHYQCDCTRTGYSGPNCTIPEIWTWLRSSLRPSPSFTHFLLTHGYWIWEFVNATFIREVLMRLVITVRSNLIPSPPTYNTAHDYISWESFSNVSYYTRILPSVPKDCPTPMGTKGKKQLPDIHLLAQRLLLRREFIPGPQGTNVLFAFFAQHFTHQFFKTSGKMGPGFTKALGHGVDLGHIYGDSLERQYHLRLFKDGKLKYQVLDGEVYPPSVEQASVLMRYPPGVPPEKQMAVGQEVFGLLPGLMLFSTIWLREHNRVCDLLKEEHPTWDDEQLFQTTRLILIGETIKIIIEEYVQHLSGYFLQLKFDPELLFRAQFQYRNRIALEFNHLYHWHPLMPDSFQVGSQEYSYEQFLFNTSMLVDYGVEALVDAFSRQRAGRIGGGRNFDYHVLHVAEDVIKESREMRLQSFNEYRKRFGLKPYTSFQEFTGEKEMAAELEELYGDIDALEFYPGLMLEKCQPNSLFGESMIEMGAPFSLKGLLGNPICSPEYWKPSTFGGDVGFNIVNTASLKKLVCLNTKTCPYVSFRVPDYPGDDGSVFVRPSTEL
Description: ARBL/ARBC Whole Cell 5-Lipoxygenase and Cyclooxygenase Assays
The rat basophilic leukemia cell line (RBL-1) was obtained from the American Type Culture Collection (Rockville, Md.).
Radioimmuno assay (RIA) kits of LTB4 and PGF2α were obtained from Amersham (Arlington Heights, Ill.) and Seragen (Boston, Mass.) respectively.
All tissue culture media were obtained from GIBO (Gran Island, N.Y.).
RBL-1 cells were grown in culture (suspension) in Eagle's minimum essential medium supplemented with 12% fetal bovine serum and 1:100 antibiotic-antimycotic mixture at 37° C. in an incubator supplied with air-5% carbon dioxide. Cells were harvested by centrifugation. They were washed with cold phosphate buffered saline pH 7.4 (PBS; NaCl, 7.1 g; Na2 HOP4, 1.15 g; KH2 PO4, 0.2 g; and KCl, 0.2 g/L). […] Calcium ionophore A23187 (5 μM) was added and cells were incubated for seven minutes at 37° C. The reaction was stopped by chilling the tubes in ice for ten minutes. Cells were separated by centrifugation and the supernatant was stored at -20°. Aliquots (100 μl) were analyzed for LTB4 and PGF2α using radioimmuno assay kits as provided by the supplier.

SMILES	IC50 (5-lipoxygenase)	pIC50 (cyclooxygenase)
COc1cc(C=Cc2cc(C=Cc3ccc(O)c(OC)c3)[nH]n2)ccc1O [Example 1, 3,5-Bis[β-(4'-hydroxy-3'-methoxyphenyl)ethenyl]pyrazole]	1 µM	5.60
Cc1cc(C=Cc2ccc(O)c(Cl)c2)n[nH]1 [Example 7, 3-[β-(4'-Hydroxy-3'-chlorophenyl)ethenyl]-5-methylpyrazole]	5.5 µM	5.17
COc1cc(C=Cc2cc(C)n[nH]2)ccc1O [Example 5, 3-[β-(4'-Hydroxy-3'-methoxyphenyl)ethenyl]-5-methylpyrazole]	7.1 µM	4.89
